Data taken from US20230029372A1, “THERAPEUTIC COMPOSITIONS AND METHODS FOR PREVENTION AND TREATMENT OF DIASTOLIC DYSFUNCTION” (AMBETEX PTY LTD, priority 2019, published 2023).
Entries after “also recorded” stand apart in the source; their conditions may differ.

Key:
Assay type in all cases: in vivo
plasma Aβ species = assay: PF06648671-High Fat Diet (HFD) treatment study: plasma Aβ species by ELISA; conditions: obese mice
Protocol: PF06648671-High Fat Diet (HFD) treatment study: At 12 weeks of age, mice (n=30) were placed on a HFD with 43% of calories from fat (23.5% by weight; SF04-001 High Fat Rodent Diet Based on D12451, Specialty Feeds, Glen Forrest, Wash.). After 13 weeks of the diet period, echocardiography was performed on all mice to obtain pre-drug treatment measures of cardiac function. Mice were allocated to treatment groups so that measures of cardiac function and morphology were matched as best as possible. PF06648671 (Medkoo Biosciences) was resuspended in 100% DMSO before being diluted in a hydroxypropyl cellulose solution to give a final solution containing lmg/mL PF06648671 in 10% hydroxypropyl cellulose and 5% DMSO. A vehicle solution containing 10% hydroxypropyl cellulose and 5% DMSO was also made. Aliquots of both drug and vehicle were stored at −80° C. until required. The HFD/PF06648671 group was administered 4 mg/kg of PF06648671 per day by oral gavage, while the HFD/control group received an equivalent volume of vehicle. Echocardiography was then performed following 4 weeks of the treatment period to obtain post-drug treatment measures of cardiac function. […] Plasma Aβ species were measured using high sensitivity ELISA kits (Wako Diagnostics) and plasma that was diluted 1:10 with assay buffer.

obese mice = assay: PF06648671-High Fat Diet (HFD) treatment study: echocardiography
Protocol: PF06648671-High Fat Diet (HFD) treatment study: At 12 weeks of age, mice (n=30) were placed on a HFD with 43% of calories from fat (23.5% by weight; SF04-001 High Fat Rodent Diet Based on D12451, Specialty Feeds, Glen Forrest, Wash.). After 13 weeks of the diet period, echocardiography was performed on all mice to obtain pre-drug treatment measures of cardiac function. Mice were allocated to treatment groups so that measures of cardiac function and morphology were matched as best as possible. PF06648671 (Medkoo Biosciences) was resuspended in 100% DMSO before being diluted in a hydroxypropyl cellulose solution to give a final solution containing lmg/mL PF06648671 in 10% hydroxypropyl cellulose and 5% DMSO. A vehicle solution containing 10% hydroxypropyl cellulose and 5% DMSO was also made. Aliquots of both drug and vehicle were stored at −80° C. until required. The HFD/PF06648671 group was administered 4 mg/kg of PF06648671 per day by oral gavage, while the HFD/control group received an equivalent volume of vehicle. Echocardiography was then performed following 4 weeks of the treatment period to obtain post-drug treatment measures of cardiac function. Following 5 weeks of the drug administration, mice were humanely killed via cervical dislocation and blood was immediately obtained via cardiac puncture and stored in a heparinised tube. The heart, epididymal fat pad, mesenteric fat pad, liver, quadricep, hind limb and brain were then immediately dissected. The heart was blotted prior to being weighed and all tissues were snap frozen in liquid nitrogen and stored at −80° C. Plasma Aβ species were measured using high sensitivity ELISA kits (Wako Diagnostics) and plasma that was diluted 1:10 with assay buffer.

Male C57BL6 mice [1] = assay: Aβ40 administration study: plasma Aβ40 and echocardiography; conditions: 1 μg/day i.p.
Protocol: Aβ40 administration study: Lyophilised recombinant Aβ40 (Millipore) and scrambled control peptide (ScrAβ40; Millipore) were resuspended in 1% NH4OH and aliquoted at 200 ng/ml in H2O and stored at −80° C. for no longer than 4 weeks. Male C57BL6 mice were obtained from the Animal Resource Centre (Perth, Wash.) at 4 weeks of age and housed with 4 mice per cage on a 12 hr light/dark cycle at a temperature of 22° C. and a constant humidity with a normal rodent diet. At 12 weeks of age, mice were grouped according to body mass and composition, determined by EchoMRI. Mice were then administered 1 μg of recombinant Aβ40 or ScrAβ40 (n=12/group per cohort) by i.p. injection once/day for 5 wks. After 4 weeks of peptide administration, cardiac function was assessed by echocardiography as follows. Mice were anaesthetised with inhalation of 1.5% isoflurane anaesthesia and echocardiography was performed using the Phillips HD15 diagnostic ultrasound system with a 15 MHz linear-array transducer by an experienced veterinarian. The velocity of blood flow through the mitral valve was analysed using Doppler mode imaging. […] Doppler imaging was also utilised to measure the velocity of blood flow through the aortic valve. The measurements were then used to calculate the ejection time, peak aortic flow and heart rate. M-mode imaging of the left ventricle was used to measure the thickness of the inter-ventricular septum (IVS), left ventricular internal diameter (LVID) and left ventricular posterior wall (LVPW) in both diastole (d) and end-systole (s) as well as systolic measures such as ejection fraction and fractional shortening. An estimation of LV mass was calculated from the m-mode imaging by using the formula (1.05[LVIDd+LVPWd+IVSd]^3−[LVIDd]^3) by Troy et al. (1972). Mice were humanely killed by cervical dislocation 1 week later. Blood was obtained immediately following by cardiac puncture and the heart, and other tissues were immediately removed. Hearts were washed in ice cold PBS and weighed prior to being snap frozen in liquid nitrogen. Plasma Aβ40 was measured using a high sensitivity ELISA kit (Wako Diagnostics) and plasma that was diluted 1:10 with assay buffer.

Male C57BL6 mice [2] = assay: Aβ42 administration study: plasma Aβ42, body measures, GTT with glucose tracers, cardiac TAG, gene expression
Protocol: Male C57BL6 mice were obtained from the Animal Resource Centre (Perth, Wash.) at 4 weeks of age and housed with 4 mice per cage on a 12 hr light/dark cycle at a temperature of 22° C. and a constant humidity with a normal rodent diet. At 12 weeks of age, mice were grouped according to body mass and composition, determined by EchoMRI. […] An i.p. glucose tolerance test (GTT) was performed on the final treatment day following an overnight fast. Mice were administered 2 g/kg lean mass of glucose including radioactive glucose tracers, prepared as follows. 100 μl of 1 μCi/μl glucose analogue, [^3H]-2-deoxyglucose (2-DOG), and 500 μl of 200 μCi/mL U-^14C glucose were evaporated to dryness before redissolving the radioactive tracers in 1 mL of 50% glucose. This produced a 50% glucose solution containing 100 μCi/mL [^3H]-2-DOG and 100 μCi/mL U-^14C glucose. The tail tip of each mouse was cut off and the blood glucose concentration of a blood sample was measured using an AccuCheck II glucometer (Roche). The GTT was initiated via intraperitoneal injection of the radiolabelled glucose solution (2 g/kg body weight, 10 uCi/animal) into the overnight-fasted mice. Further blood samples were taken at 15, 30, 45, 60 and 90 minutes after the injection for the measurement of blood glucose. Blood samples (30 μl) were also taken from the tail tip at each time point and diluted in 100 μl of saline. These samples were then centrifuged and the supernatant collected. 50 μl of the supernatant was diluted in 500 μl of distilled water and then suspended in 4 mL of Ultima Gold XR scintillation fluid (Packard Bioscience). Blood radioactivity was determined at each time point by performing liquid scintillation counting on each solution using the Beckman scintillation counter (LS6000 SC). At the conclusion of the GTT, mice were killed via cervical dislocation. Blood was obtained immediately following by cardiac puncture and the heart, and other tissues were immediately removed. Hearts were washed in ice cold PBS and weighed prior to being snap frozen in liquid nitrogen. The heart (30 mg), epididymal fat pad (30 mg and quadriceps skeletal muscle (30 mg) were homogenised in 1.5 ml of distilled water. The homogenate was centrifuged at 3000 rpm for 10 min at 4° C. 400 μl of the supernatant was diluted into 1.6 mL of distilled water and then suspended in 14 mL of Ultima Gold XR scintillation fluid (Packard Bioscience). The radioactivity of each sample (from both [^3H]-2-DOG6P and [^3H]-2-DOG) was determined by liquid scintillation counting using the Beckman scintillation counter (LS6000 SC). The ^3H radioactivity was used to measure glucose uptake into each tissue.
To determine the incorporation of U-^14C glucose into triglyceride and the total triglyceride content in the heart, an extraction of triglyceride was carried out using a chloroform/methanol mixture. Samples of heart (30 mg) were hand-homogenised in 2 mL of chloroform/methanol (2:1) and the homogeniser rinsed in a further 2 mL of chloroform/methanol (2:1), and the washings being added to the original extract in 10 mL tubes. The tubes were tightly capped and mixed on a rotator overnight to maximise extraction of the triglycerides. 2 ml of 0.6% saline was then added, to facilitate the separation of the organic and aqueous phases, after which the tubes were mixed thoroughly and then centrifuged at 2000 rpm for 10 minutes. The lower chloroform phase (containing triglycerides) was collected and evaporated to dryness under nitrogen at 45° C. The dried extract was then re-dissolved in 250 μl of 100% ethanol, to redissolve the lipid and enable aliquots to dispensed for assay. The amount of U-^14C glucose clearance into the lipid fraction was measured by suspending 100 μl of the triglyceride solution in 5 mL of Ultima Gold XR scintillation fluid (Packard Bioscience), followed by scintillation counting using the Beckman scintillation counter (LS6000 SC).

Male C57BL6 mice [3] = assay: Aβ42 administration study: cardiac function by echocardiography
Protocol: After 4 weeks of peptide administration, cardiac function was assessed by echocardiography as follows. Mice were anaesthetised with inhalation of 1.5% isoflurane anaesthesia and echocardiography was performed using the Phillips HD15 diagnostic ultrasound system with a 15 MHz linear-array transducer by an experienced veterinarian. The velocity of blood flow through the mitral valve was analysed using Doppler mode imaging. […] Doppler imaging was also utilised to measure the velocity of blood flow through the aortic valve. The measurements were then used to calculate the ejection time, peak aortic flow and heart rate. M-mode imaging of the left ventricle was used to measure the thickness of the inter-ventricular septum (IVS), left ventricular internal diameter (LVID) and left ventricular posterior wall (LVPW) in both diastole (d) and end-systole (s) as well as systolic measures such as ejection fraction and fractional shortening. An estimation of LV mass was calculated from the m-mode imaging by using the formula (1.05 [LVIDd+LVPWd+IVSd]^3−[LVIDd]^3) by Troy et al. (1972). Mice were humanely killed by cervical dislocation 1 week later. Blood was obtained immediately following by cardiac puncture and the heart, and other tissues were immediately removed. Hearts were washed in ice cold PBS and weighed prior to being snap frozen in liquid nitrogen.
Hearts were also collected for morphological analysis (FIG. 2).

[4] = GTT after five weeks of peptide, vs ScrAβ42

Cc1cn(-c2ccc3n(c2=O)CCN([C@@H](C)[C@@H]2CC[C@H](c4cc(F)c(Cl)cc4C(F)(F)F)O2)C3=O)cn1 [PF06648671]
plasma Aβ40 (plasma Aβ species; 4 mg/kg per day oral gavage (FIG. 7A)): decreased
plasma Aβ42 (plasma Aβ species; 4 mg/kg per day oral gavage (FIG. 7B), 4 mg/kg/day): decreased; also recorded: reduced
relative change in the E:A ratio, Vehicle vs PF06648671 groups (obese mice; obese mice (FIG. 7D)): significantly different
E:A ratio Pre-treatment to Post-treatment (obese mice; obese mice, 4 mg/kg per day oral gavage, 4 weeks (FIG. 7C)): did not change; also recorded: prevented deterioration
E:A ratio relative to Pre-treatment values (obese mice; obese mice, 4 mg/kg per day oral gavage, 4 weeks (FIG. 7D)): 114%

Aβ40: Lyophilised recombinant Aβ40 (Millipore)
E:A ratio (Male C57BL6 mice [1]; 5 weeks (FIG. 6B)): did not have any effect
DT (Male C57BL6 mice [1]; 5 weeks (FIG. 6C)): did not have any effect
ejection fraction (Male C57BL6 mice [1]; 5 weeks (FIG. 6E)): nor any effect
IVSd (Male C57BL6 mice [1]; 5 weeks (FIG. 6F)): no effect
LVIDd (Male C57BL6 mice [1]; 5 weeks (FIG. 6G)): no effect
LV mass (Male C57BL6 mice [1]; 5 weeks (FIG. 6H)): no effect
plasma Aβ40 (Male C57BL6 mice [1]; 5 weeks, vs ScrAβ40 (FIG. 6A)): significantly increased

Aβ42: Lyophilised recombinant Aβ42 (Millipore)
increase in plasma Aβ42 (Male C57BL6 mice [2]; 1 μg/day i.p., five weeks, compared with ScrAβ42 (FIG. 1A)): approximately 3 fold
plasma insulin throughout the GTT (Male C57BL6 mice [2]; [4]): no difference
whole body glucose tolerance (Male C57BL6 mice [2]; [4]): no difference
glucose incorporation into TAG (14C-glucose labelling) (Male C57BL6 mice [2]; heart, after five weeks of peptide (FIG. 1C)): greater
total TAG (Male C57BL6 mice [2]; heart, after five weeks of peptide (FIG. 1D)): increased
cardiac gene expression (inflammation, endoplasmic reticulum stress) (Male C57BL6 mice [2]; heart, after five weeks of peptide (FIG. 1E)): gene expression changes indicative of cardiac stress responses
internal dimensions of the left ventricle (LVIDd) (Male C57BL6 mice [3]; Aβ42 vs ScrAβ42 (FIG. 2B)): no effect
deceleration time (Male C57BL6 mice [3]; Aβ42 vs ScrAβ42 (FIG. 2D)): increased
E normalised by isovolumetric relaxation time (IVRT) (Male C57BL6 mice [3]; Aβ42 vs ScrAβ42 (FIG. 2E)): no significant difference
fractional shortening (Male C57BL6 mice [3]; Aβ42 vs ScrAβ42 (FIG. 2F)): reduced
ejection fraction (Male C57BL6 mice [3]; Aβ42 vs ScrAβ42 (FIG. 2G)): reduced
gross heart weight (Male C57BL6 mice [3]; Aβ42 vs ScrAβ42, five weeks (FIG. 2A)): no effect
